Experiment [1] deals with PC3 prostate cancer cells. Briefly: Binding of biotinylated peptides to PC3 cells, HRP-avidin detection. Further details: species or system human. The note with it: chlorotoxin binding assay, FIG. 11. The protocol:
To identify core binding site sequences of chlorotoxin, twenty-seven overlapping 10-mers derived from SEQ 1) NO: 1 were synthesized, starting from the C-terminus of the peptide as indicated in FIG. 7.
Binding of the 10-mer peptides to PC3 prostate cancer cells in vitro was measured by incubating cultured PC3 cells with individual peptides. Binding was detected and quantified by incubating the peptide exposed cells with HRP-avidin using a commercial kit according to manufacturer's instructions.
(SEQ ID NO: 10) sequentially as depicted in Table 5.
In order to compare binding of the short scorpion toxins, the regions homologous to peptide 21 of small toxin and probable toxin LQH-8/6 were synthesized and biotinylated for analysis in the chlorotoxin binding assay. (See Table 6 for amino acid sequences of the peptides).

The subject of the next experiment is D54MG Glioblastoma cells. The note with it: 24 h. The protocol: The purpose of this experiment was to determine if the proliferation D54MG Glioblastoma cells, as measured by ^3H-thymidine uptake, is effected by Peptide 21, a segment of the full chlorotoxin sequence. The sequence of peptide 21 and its relation to chlorotoxin is shown in the sequence below:
D54MG cells were plated in a 24 well plate at 100,000 cells/ml/well using five rows of four wells for each concentration. The cells were allowed to adhere in normal media for twenty-four hours at 37° C. and 5% carbon dioxide. TM-701 was diluted to a […] stock solution and added to each row at the concentrations of 0, 20, 80, 160 and 320 nM.
The cells and peptide 21 were allowed to incubate for 24 hours at 37° C. and 5% carbon dioxide. After twenty-four hours, the cells were rinsed two times with warm PBS. Normal media was added back to the cells at 1 ml/well. One μCi of ^3H-thymidine was added to each well (1 μl of 1 mCi/ml ^3H-thymidine to each well). The plate was incubated for two hours at 37° C. The media and thymidine were removed and the wells were rinsed with ice-cold phosphate-buffered saline three times. To each well was added 1 ml of 0.3 N NaOH. The plate was incubated in the 37° C. incubator for thirty minutes. Each well of 0.3 N NaOH was pipetted up and down three to four times and removed from the plate and the solution was placed in scintillation vials for counting. Scintillation fluid at four times the amount of sample was added to the vials (4 ml). Each vial was counted on the scintillation counter for one minute.

Read-outs that look alike come from different tables or passages of the source. Ends that are not written are not given here. * marks the point of attachment. Biotin = O=C1N[C@H]2[C@H](CS[C@H]2CCCCC(=O)*)N1

For Biotin-TTDHQMARKS [peptide 21], in experiment [1], the “binding in PC3 human prostate cancer cells” value (from here on “binding”) is 232.50 % of background levels. Besides, the “uptake of 3H-thymidine, trend over 20 to 320 nM” value in the experiment with D54MG Glioblastoma cells (FIG. 12) is “decreases in a does-dependent manner”. Besides, the “3H-Thymidine uptake ± SD” value worked out at 7795 ± 634 CPM in the experiment with D54MG Glioblastoma cells (peptide 21 at 20 nM), 7412 ± 630 CPM in the experiment with D54MG Glioblastoma cells (peptide 21 at 80 nM), 6983 ± 329 CPM in the experiment on D54MG Glioblastoma cells (peptide 21 at 160 nM) and 5782 ± 886 CPM with D54MG Glioblastoma cells (peptide 21 at 320 nM).

“TTDPQMSKK [21ST, region of small toxin homologous to peptide 21, synthesized and biotinylated]”: the “binding” value in experiment [1] is recorded as 225.26 % of background levels.

As for “TTDQQMTKK [21LQ, region of probable toxin LQH-8/6 homologous to peptide 21, synthesized and biotinylated]”, the “binding” value in experiment [1] is reported as 242.32 % of background levels.

For “negative peptide (GKCYGPQCLC; Chlorotoxin; listed as Leiurus quinquestriatus) [reference compound]”, the “binding” value in experiment [1] is given as 110 % of background levels.

For the origin of these results see patent publication US20060166892A1, “Treatment of cell proliferative disorders with chlorotoxin” (priority 2002, published 2006).
